Experimental data taken from patent US20100210597A1, “C21-Deoxy Ansamycin Derivatives as Antitumor Agents” (priority 2007, published 2010).
In brackets after ≈: the same amount, converted by molar mass. Where two headings read alike, the source gives them in different places.

Experiments:
[1] = In vivo pharmacokinetic assay in mice; set-up: species or system mouse; settings: female CD-1 mice
Protocol: The test compound was prepared directly in endotoxin free water. A single dose of 10 mg/kg p.o. or 3 mg/kg i.v. was administered to groups of female CD1 mice (3 mice for each compound per time point). Dose volumes were 10 mL/kg for both oral and intravenous administration. At 4 minutes and 0.25, 0.5, 1, 2, 4, 8, 24 hours groups were sacrificed and plasma was collected from each mouse for further analysis. For oral dosing, a single dose of Test Article was administered via oral gavage to the mice. For intravenous dosing, a single dose of Test article was administered intravenously to mice via the tail veins.
The concentration of the relevant compounds in the plasma samples was determined by HPLC with MS detection.
• Mass spectrometer: API 3200 Q Trap triple quadruple mass spectrometer • Liquid chromatography: Agilent 1200/PAL HTC Autosampler • Ionization Mode: Electrospray (may be changed depending on the TA) • Monitoring: Multiple Reaction Monitoring • LC chromatography BetaBastic-8, 50×2.1 mm, 5 μm (may separation: be changed depending on the TA)
Based on the peak area ratios of test article to an internal standard, 17-Methoxyethylamino Geldanamycin (Schnur et al., 1995), concentrations of an unknown sample were obtained by a calibration curve.
Test plasma sample (0.05 ml), analyte free mouse whole serum (0.05 ml), internal standard solution (0.1 ml of 10 mg/mL 17-Methoxyethylamino geldanamycin (Schnur et al., 1995) dissolved in methanol) and acetonitrile (0.5 ml) were pipetted into a 2-mL polypropylene tube and the contents of the tubes were mixed for a minimum of 5 minutes (Vibrax mixer). The tubes were then centrifuged in a microfuge for a minimum of 2 minutes at 12,000 rpm. 0.1 ml of the solvent layer was transferred into a 2-mL polypropylene tube containing 1 mL acid diluent (0.1% formic acid). The tubes were then mixed for a minimum of 5 minutes (Vibrax mixer) and then centrifuged at approximately 3500 rpm for 5 minutes. The extracts were transferred to auto-sampler vials and placed in the auto sampler tray which was set at ambient temperature. The auto-sampler was programmed to inject a 0.005 ml aliquot of each extract onto the analytical column.
In vivo confirmation of the cleavage of 20 to the parent molecule, 17, was carried out as described in the general methods.
Female CD-1 mice were given single doses of 20, either intravenously at 3 mg/kg, or orally at 10 mg/kg. Plasma samples were then collected at 8 time points (0.067, 0.25, 0.5, 1, 2, 4, 8 and 24 h postdose) over a 24-h period. The amounts of 20 and 17 in the samples were then analysed. […] After iv administration, 20 was only detected up to 0.25 hours after dosing, whilst 17 was detected up to 4 hours after dosing.

[2] = In vitro Caco-2 assay for cell permeability; format: in vitro ADME; settings: human, Caco-2, pH 7.4, 10 uM, 2 hour incubation
Protocol: (§1) Caco-2 cells (ATCC Cat. # HTB-37) were grown on fibrillar collagen-coated, microporous, polycarbonate membranes in 24-well BioCaot™ insert plates. Following 5-day growth in Eagle's minimum essential medium supplemented with 10% FBS, the cells were exposed to BioCoat Enterocyte Differentiation Medium (BD, Cat. # 05496) for 2 days to induce enterocytic differentiation. Prior to dosing, the transepithelial electric resistance (TEER) of the Caco-2 cells in each well was measured to ensure the quality of the monolayers.
(§2) The stock solutions of test compounds were prepared at 3 mM in DMSO. Dosing solutions were prepared in the permeability assay buffer at 10 μm. The permeability assay buffer was Hank's balanced salt solution containing 10 mM HEPES at a pH of 7.4±0.2.
(§3) The Caco-2 cells were dosed with the test compounds on either apical side (for A-to-B permeation) or basolateral side (for B-to-A permeation) and incubated at 37° C. with 5% CO2 and 90% relative humidity. The testing for each compound was performed in duplicate. After 2 hour incubation, a 20-μL sample was taken from each of dosing solutions and both donor and receiver compartments. To ensure the validity of the Caco-2 assay, propranolol and vinblastine were used as a high- and a low- to medium-permeability positive control, respectively. Vinblastine also served as a P-gp substrate, tested in conjunction with a P-gp inhibitor, verapamil.
(§4) To quantify test compounds by LC/MS/MS, a related geldanamycin-like compound, 17-methoxyethylamino geldanamycin (Schnur et al., 1995), was used as the internal standard. The calculation of permeability of each compound involved only the concentration ratio of the same test compound, the concentration ratio was expressed in the peak area ratio of the test compound to the internal standard. The peak area ratio of each compound was derived by LC-MS/MS.
(§5) The apparent permeability coefficient Papp was calculated as below: […]
(§6) dCr: cumulative concentration in the receiver compartment in M. dt: duration of the assay (i.e., 7200 seconds). Vr: volume of the receiver compartment in cm^3. A: area of the cell monolayer (0.31 cm^2 for 24-well BioCoat™ plate). C0: concentration of the dosing solution in M.
(§7) The in vitro permeability of 20 and the parent 17 were assayed using caco-2 cells, as described in the general methods. All compounds were analysed at a concentration of 10 uM.

[3] = tested on: Caco-2 cells; test: In vitro Caco-2 assay for cell permeability; format: in vitro ADME; settings: 10 uM, 2 hour incubation
Protocol: as §1, §2, §3, §4, §5, §6, §7

[4] = Water solubility assay, thermodynamic measurement; format: physicochemical; settings: 5% glucose, 6 hours, room temperature
Protocol: Thermodynamic Measurements: • The appropriate amounts of compound to make solutions of the compounds at 2, 5, 10 and or 20 mM were mixed with the appropriate amounts of 5% glucose and with DMSO in brown glass vials and shaken at room temperature on an IKA® vibrax VXR shaker. After 6 hours the resulting suspensions/solutions were centrifuged for 20 min at 13200 rpm. • Aliquots of the supernatant fluid were then analysed by an Agilent 1100 HPLC coupled to a Bruker Daltonics Esquire3000 electrospray mass spectrometer (for details see specific examples herein). Chromatography was achieved over a Phenomenex Hyperclone column, BDS C18 3u (150×4.6 mm), with a linear gradient of acetonitrile:water (40:60 to 100) over 11 min at 1 mL/min. UV absorbance was monitored at λ=258 and 280 nm. • All analyses were performed in triplicate and the solubilities of individual compounds calculated by comparing their solubility in 5% glucose with an assumed solubility of 100% in DMSO.
Solubility in 2% DMSO in PBS at each time point was determined by comparing total peak areas for each chromatogram with mean total peak area for chromatograms produced from the corresponding 6 hour DMSO solutions. (Mean total peak area in DMSO solutions was assumed to be equivalent to a 0.5 mM solution). The solubility of compound 17 was measured by a thermodynamic assay as described in the general methods.

[5] = tested on: Hsp90; settings: shown in WO2007/074347 (there compound 14); cited from earlier work

CO[C@H]1C[C@H](C)Cc2cc(O)cc(c2)NC(=O)/C(C)=C/CC[C@H](C)[C@@H](OC(N)=O)/C(C)=C/[C@H](C)[C@H]1O [Compound 17, 4,5-dihydro-11-O-demethyl-15-demethoxy-18,21-didehydro-21-deoxomacbecin]
detected in plasma up to (time after dosing) ([1]; single intravenous dose of 20 at 3 mg/kg): up to 4 hours | detected in plasma up to (time after dosing) ([1]; single oral dose of 20 at 10 mg/kg): up to 8 hours | efflux ratio at 2 h, 10 uM ([2]; read-out: Efflux ratio Papp(B → A)/Papp(A → B)): 6.8 | Papp A→B at 2 h, 10 uM ([2]; read-out: Permeability Apical to Basolateral Papp(A → B) Mean): 0.44 ×10⁻⁶ cm/s | Papp A→B at 2 h, 10 uM ([2]; read-out: Permeability Apical to Basolateral Papp(A → B) Rep. 1): 0.39 ×10⁻⁶ cm/s | Papp A→B at 2 h, 10 uM ([2]; read-out: Permeability Apical to Basolateral Papp(A → B) Rep. 2): 0.49 ×10⁻⁶ cm/s | Papp B→A at 2 h, 10 uM ([2]; read-out: Permeability Basolateral to Apical Papp(B → A) Mean): 2.95 ×10⁻⁶ cm/s | Papp B→A at 2 h, 10 uM ([2]; read-out: Permeability Basolateral to Apical Papp(B → A) Rep. 1): 1.7 ×10⁻⁶ cm/s | Papp B→A at 2 h, 10 uM ([2]; read-out: Permeability Basolateral to Apical Papp(B → A) Rep. 2): 4.21 ×10⁻⁶ cm/s | Efflux Limited [3]: Yes (Papp (B → A)/Papp (A → B) ≧ 3, and Papp (B → A) ≧ 1.0 × 10^-6 cm/s) | solubility [4]: 716 µM (≈ 360 µg/mL) | Hsp90 inhibition [5]: potent Hsp90 inhibitor
